Source: ChEMBL document CHEMBL5537197, “Discovery of Novel Coumarin-quinolinium Derivatives as Pan-KRAS Translation Inhibitors by Targeting 5'-UTR RNA G-Quadruplexes” (J Med Chem, 2024)
Active and inactive are the calls of the source. The calls are words filed in the database; no cut-off is given here.

How the values were obtained:
[1] = test system: MIA PaCa-2; test: Cytotoxicity against human MIA PaCa-2 cells harboring KRAS G12C mutant assessed as cell growth inhibition incubated for 24 hrs by MTT assay; type: functional, cell-based; conditions: MIA PaCa-2, 24 h
[2] = molecular target: GTPase KRas (Homo sapiens) (UniProt P01116); test: Inhibition of KRAS in human MIA PaCa-2 cells at 2.5 uM incubated for 24 hrs by Western blot analysis; type: cell-based
[3] = test system: PANC-1; test: Cytotoxicity against human PANC-1 cells overexpressing KRAS G12D mutant assessed as cell death incubated for 24 hrs by MTT assay; type: functional, cell-based
[4] = test system: HPAF-II; test: Cytotoxicity against human HPAF-II cells harboring KRAS G12D mutant assessed as cell growth inhibition incubated for 24 hrs by MTT assay; type: functional, cell-based
[5] = test system: NCI-H358; test: Cytotoxicity against human NCI-H358 cells harboring KRAS G12C mutant assessed as cell growth inhibition incubated for 24 hrs by MTT assay; type: functional, cell-based; conditions: NCI-H358, 24 h
[6] = test system: U-87 MG; test: Cytotoxicity against human U-87 MG cells harboring wild-type KRAS assessed as cell growth inhibition incubated for 24 hrs by MTT assay; type: functional, cell-based, U-87MG ATCC
[7] = Cytotoxicity against human HFL1 cells harboring wild-type KRAS assessed as cell growth inhibition incubated for 24 hrs by MTT assay; type: toxicity, cell-based
[8] = test system: GTPase KRas (Homo sapiens), P01116 [G12C]; test: Inhibition of KRAS G12C mutant in human MIA PaCa-2 cells incubated for 24 hrs by Western blot analysis; type: cell-based; conditions: dose <= 5.0 µM
[9] = test system: GTPase KRas (Homo sapiens), P01116 [G12C]; test: Inhibition of KRAS G12C mutant in human MIA PaCa-2 cells at 2.5 uM by Western blot analysis; type: cell-based; conditions: time <= 48.0 hrs, TDE = time-dependent effect
[10] = test system: GTPase KRas (Homo sapiens), P01116 [G12D]; test: Inhibition of KRAS G12D mutant in human PANC-1 cells at 2.5 uM by Western blot analysis; type: cell-based; conditions: time <= 48.0 hrs, TDE = time-dependent effect
[11] = test system: GTPase KRas (Homo sapiens), P01116 [G12C]; test: Inhibition of KRAS G12C mutant in human NCI-H358 cells incubated for 24 hrs by Western blot analysis; type: cell-based; conditions: dose <= 5.0 µM
[12] = test system: GTPase KRas (Homo sapiens), P01116 [G12C]; test: Inhibition of KRAS G12C mutant in human NCI-H358 cells at 2.5 uM by Western blot analysis; type: cell-based; conditions: time <= 48.0 hrs, TDE = time-dependent effect
[13] = test system: MIA PaCa-2; test: Effect on KRAS mRNA level in human MIA PaCa-2 cells harboring KRAS G12C mutant at upto 5 uM incubated upto 48 hrs by RT-qPCR analysis; type: functional, cell-based
[14] = test system: NCI-H358; test: Effect on KRAS mRNA level in human NCI-H358 cells harboring KRAS G12C mutant at upto 5 uM incubated upto 48 hrs by RT-qPCR analysis; type: functional, cell-based
[15] = molecular target: Quadruplex DNA; test: Binding affinity to SS12 G-Quadruplex (unknown origin) assessed as dissociation constant by fluorescence spectroscopy; type: nucleic-acid assay
[16] = molecular target: Quadruplex DNA; test: Binding affinity to HP12 G-Quadruplex (unknown origin) assessed as dissociation constant by fluorescence spectroscopy; type: nucleic-acid assay
[17] = test system: Quadruplex RNA; test: Binding affinity to KRAS RNA G-Quadruplex (unknown origin) assessed as melting temperature at 25 uM at 25 to 95 degreeC by CD spectroscopy (reference value: 71.4 degreeC); type: nucleic-acid assay
[18] = test system: Quadruplex DNA; test: Binding affinity to KRAS DNA G-Quadruplex (unknown origin) assessed as melting temperature at 25 uM at 25 to 95 degreeC by CD spectroscopy (reference value: 50.1 degreeC); type: nucleic-acid assay
[19] = test system: Quadruplex RNA; test: Binding affinity to NRAS RNA G-Quadruplex (unknown origin) assessed as melting temperature at 25 uM at 25 to 95 degreeC by CD spectroscopy (reference value: 82.2 degreeC); type: nucleic-acid assay
[20] = test system: Quadruplex RNA; test: Inhibition of KRAS RNA G-Quadruplex (unknown origin) translation transfected in HEK293T cells assessed as decrease in relative luciferase activity upto 5 uM incubated for 24 hrs by Dual-luciferase reporter assay; type: cell-based
[21] = molecular target: GTPase KRas (Homo sapiens) (UniProt P01116); test: Inhibition of KRAS in human MIA PaCa-2 cells assessed as decrease in MEK phosphorylation incubated for 24 hrs by Western blot analysis; type: cell-based; conditions: dose 1.25-5 µM
[22] = molecular target: GTPase KRas (Homo sapiens) (UniProt P01116); test: Inhibition of KRAS in human MIA PaCa-2 cells assessed as decrease in AKT phosphorylation incubated for 24 hrs by Western blot analysis; type: cell-based; conditions: dose 1.25-5 µM
[23] = molecular target: GTPase KRas (Homo sapiens) (UniProt P01116); test: Inhibition of KRAS in human MIA PaCa-2 cells assessed as decrease in mTOR phosphorylation incubated for 24 hrs by Western blot analysis; type: cell-based; conditions: dose 1.25-5 µM
[24] = molecular target: GTPase KRas (Homo sapiens) (UniProt P01116); test: Inhibition of KRAS in human MIA PaCa-2 cells assessed as decrease in ERK phosphorylation at 2.5 uM by Western blot analysis; type: cell-based; conditions: time <= 24.0 hrs, TDE = time-dependent effect
[25] = molecular target: GTPase KRas (Homo sapiens) (UniProt P01116); test: Inhibition of KRAS in human MIA PaCa-2 cells assessed as decrease in AKT phosphorylation at 2.5 uM by Western blot analysis; type: cell-based; conditions: time <= 24.0 hrs, TDE = time-dependent effect
[26] = test system: MIA PaCa-2; test: Effect on total protein level in human MIA PaCa-2 cells at 2.5 uM incubated for upto 24 hrs by Western blot analysis; type: functional, cell-based
[27] = test system: MIA PaCa-2; test: Inhibition of cell proliferation of human MIA PaCa-2 cells at 0.32 to 1.25 uM incubated for 10 days by colony formation assay relative to control; type: functional; conditions: dose 0.32-1.25 µM, time 10 day
[28] = test system: MIA PaCa-2; test: Induction of apoptosis in human MIA PaCa-2 cells assessed as increase in caspase-3 cleavage by Western blot analysis; type: functional, cell-based; conditions: dose 1.25-5 µM
[29] = test system: MIA PaCa-2; test: Antitumor activity against human MIA PaCa-2 cells xenografted in BALB/C-nu/nu mouse model assessed as reduction in tumor weight at 2.5 to 5 mg/kg,ip everyday for 18 days; type: functional, organism-based; conditions: dose 2.5-5 mg/kg, time 18.0 day
[30] = test system: MIA PaCa-2; test: Antitumor activity against human MIA PaCa-2 cells xenografted in BALB/C-nu/nu mouse model assessed as tumor growth inhibition at 2.5 mg/kg,ip everyday for 18 days relative to control; type: functional; conditions: MIA PaCa-2, 432 h, time 18 day, read-out: TGI
[31] = Toxicity in BALB/C-nu/nu mouse model xenografted with human MIA PaCa-2 cells assessed as signs of pain at 2.5 to 5 mg/kg,ip everyday for 18 days; type: organism-based; conditions: in vivo, 432 h, dose 2.5-5 mg/kg, time 18 day
[32] = Toxicity in BALB/C-nu/nu mouse model xenografted with human MIA PaCa-2 cells assessed as body weight change at 2.5 to 5 mg/kg,ip everyday for 18 days; type: organism-based; conditions: in vivo, 432 h, dose 2.5-5 mg/kg, time 18 day
[33] = Toxicity in BALB/C-nu/nu mouse model xenografted with human MIA PaCa-2 cells assessed as toxic sigs in viscera at 2.5 to 5 mg/kg,ip everyday for 18 days; type: organism-based; conditions: in vivo, 432 h, dose 2.5-5 mg/kg, time 18 day
[34] = Toxicity in BALB/C-nu/nu mouse model xenografted with human MIA PaCa-2 cells assessed as drug tolerance at 2.5 to 5 mg/kg,ip everyday for 18 days; type: organism-based; conditions: in vivo, 432 h, dose 2.5-5 mg/kg, time 18 day
[35] = test system: MIA PaCa-2; test: In vivo inhibition of KRAS in human MIA PaCa-2 cells xenografted in BALB/C-nu/nu mouse model at 2.5 to 5 mg/kg,ip everyday for 18 days by Western blot analysis; type: functional, organism-based; conditions: dose 2.5-5 mg/kg, time 18.0 day
[36] = test system: MIA PaCa-2; test: Effect on total KRAS mRNA level in human MIA PaCa-2 cells xenografted in BALB/C-nu/nu mouse model at 2.5 to 5 mg/kg,ip everyday for 18 days by RT-qPCR analysis; type: functional, organism-based; conditions: dose 2.5-5 mg/kg, time 18.0 day

Chain of GTPase KRas (Homo sapiens), P01116 [G12C] (P01116 whole entry G12C): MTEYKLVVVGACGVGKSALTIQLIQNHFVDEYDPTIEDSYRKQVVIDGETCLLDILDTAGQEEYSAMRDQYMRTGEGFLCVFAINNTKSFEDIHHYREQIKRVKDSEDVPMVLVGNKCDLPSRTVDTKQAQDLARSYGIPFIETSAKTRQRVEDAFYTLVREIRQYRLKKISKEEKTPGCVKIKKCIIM
Chain of GTPase KRas (Homo sapiens) (P01116 whole entry, looked up): as the sequence (P01116 whole entry G12C) above, with C12G counted along it
Chain of GTPase KRas (Homo sapiens), P01116 [G12D] (P01116 whole entry G12D, looked up): as the sequence (P01116 whole entry G12C) above, with C12D counted along it

Question: What does the source list for `CCN(CC)c1ccc2cc(/C=C/c3ccc4cc(F)c(NCCN5CCCC5)cc4[n+]3C)c(=O)oc2c1.[I-]`?
Answer: IC50 [1]: 33 µM; inhibition [2]: Active; Activity [3]: inactive; IC50 [4]: 5.4 µM; IC50 [5]: 4.8 µM; IC50 [6]: > 40 µM; IC50 at 24 h [7]: > 40 µM; inhibition [8]: Dose-Dependent Effect; inhibition [9]: Tde; inhibition [10]: Tde; inhibition [11]: Dose-Dependent Effect; inhibition [12]: Tde; Activity [13]: inactive; Activity [14]: inactive; Kd [15]: > 5 µM; Kd [16]: > 5 µM; Tm [17]: 51.3 °C; Tm [18]: 52 °C; Tm [19]: 78.7 °C; inhibition [20]: Active; inhibition [21]: Dose-Dependent Effect; inhibition [22]: Dose-Dependent Effect; inhibition [23]: Dose-Dependent Effect; inhibition [24]: Tde; inhibition [25]: Tde; Activity [26]: inactive; inhibition (INH) [27]: 100%; Activity [28]: Dose-Dependent Effect; Activity [29]: Active; inhibition in vivo at 2.5 mg/kg [30]: 62%; Activity [31]: Non-Toxic; Activity [32]: Non-Toxic; Activity [33]: Non-Toxic; Activity [34]: Non-Toxic; Activity [35]: Active; Activity [36]: inactive
